Experimental data: publication PMC9027957, “Interspecies Comparisons of the Effects of Potential Antiviral 3-Amidinophenylalanine Derivatives on Cytochrome P450 1A2 Isoenzyme” (Veterinary Sciences, 2022)

Key:
SARS-CoV-2 = test system: SARS-CoV-2; design: method as in PMID 32703818; settings: infected human airway epithelial Calu 3 cells, dose-dependent; cited from earlier work
CYP1A2 [1] = biological target: T1, CYP1A2 (Macaca fascicularis, UniProt O77809); test: CYP1A2 fluorometric activity assay in cynomolgus monkey hepatic microsomes; assay type: in vitro ADME; design: cynomolgus monkey microsomal suspension (Primacyt, Schwerin, Germany, protein concentration: 5 mg/mL); tissue Primacyt, Schwerin, Germany; host or cells: liver (hepatic microsomes)
T1 sequence (O77809 1-516): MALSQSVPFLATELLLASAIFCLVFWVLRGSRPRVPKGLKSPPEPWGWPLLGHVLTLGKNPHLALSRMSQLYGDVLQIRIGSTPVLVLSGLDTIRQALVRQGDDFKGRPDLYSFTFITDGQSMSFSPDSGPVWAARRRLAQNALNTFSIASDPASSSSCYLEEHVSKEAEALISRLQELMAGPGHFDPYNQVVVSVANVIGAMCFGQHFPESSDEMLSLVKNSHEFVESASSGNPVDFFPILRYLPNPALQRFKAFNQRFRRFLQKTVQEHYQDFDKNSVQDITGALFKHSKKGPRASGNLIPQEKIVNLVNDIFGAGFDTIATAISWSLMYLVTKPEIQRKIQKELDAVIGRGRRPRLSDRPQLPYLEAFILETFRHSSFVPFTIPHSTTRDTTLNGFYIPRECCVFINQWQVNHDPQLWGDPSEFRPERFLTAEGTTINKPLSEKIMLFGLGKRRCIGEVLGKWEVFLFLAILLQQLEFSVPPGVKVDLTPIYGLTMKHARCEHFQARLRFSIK
Procedure: (§1) The Biovision CYP assay (BioVision, Inc., Kampenhout, Belgium) utilizes a non-fluorescent CYP1A2 substrate capable of transforming into a highly fluorescent metabolite, which can be detected in the visible range. α-naphthoflavone was used as a CYP1A2 reference inhibitor at 6 µM during the experiments. Rat (Sprague–Dawley) and beagle (Gibco, Biocenter, Szeged, Hungary, protein concentration: 20 mg/mL) hepatic microsomal preparations were prepared separately by mixing 25 µL of the obtained rat or beagle microsomal suspension with 2425 µL assay buffer and with 50 µL NADPH generating system (100×). In the case of the cynomolgus monkey microsomal suspension (Primacyt, Schwerin, Germany, protein concentration: 5 mg/mL), the following volumes were applied: in addition to 100 µL of monkey microsomal suspension, the amount of assay buffer and the NADPH generating system were adjusted in order to ensure the original ratios of these components to reach a final volume of 2500 µL. Rat, beagle, and cynomolgus monkey microsomal suspension aliquots (50 µL) were treated with the protease inhibitor 20 µL, 0–1000 µM), the reference compound α-naphthoflavone (20 µL, 30 µM), or the assay buffer without test compounds (20 µL, background control) for 15 min at 37 °C. After incubation, 30 µL of the appropriate CYP1A2 substrate/NADP+ mixture was added to each well, yielding a final reaction volume of 100 µL/well. The protein contents of the obtained microsomes were analysed using bicinchoninic acid protein assay kit (Pierce BCA kit, Thermo Fisher Scientific, Waltham, MA, USA). […] The fluorescence intensities were measured with a fluorometer (Victor X2 2030, Perkin Elmer, Waltham, MA, USA), using λEx/Em = 406/468 nm.

CYP1A2 [2] = biological target: T2, CYP1A2 (Rattus norvegicus, UniProt P04799); test: CYP1A2 fluorometric activity assay in rat hepatic microsomes; assay type: in vitro ADME, rat (Sprague–Dawley); design: Rat (Sprague–Dawley) and beagle (Gibco, Biocenter, Szeged, Hungary, protein concentration: 20 mg/mL) hepatic microsomal preparations; tissue Gibco, Biocenter, Szeged, Hungary; host or cells: liver (hepatic microsomes), Sprague-Dawley rat
T2 sequence (P04799 1-513): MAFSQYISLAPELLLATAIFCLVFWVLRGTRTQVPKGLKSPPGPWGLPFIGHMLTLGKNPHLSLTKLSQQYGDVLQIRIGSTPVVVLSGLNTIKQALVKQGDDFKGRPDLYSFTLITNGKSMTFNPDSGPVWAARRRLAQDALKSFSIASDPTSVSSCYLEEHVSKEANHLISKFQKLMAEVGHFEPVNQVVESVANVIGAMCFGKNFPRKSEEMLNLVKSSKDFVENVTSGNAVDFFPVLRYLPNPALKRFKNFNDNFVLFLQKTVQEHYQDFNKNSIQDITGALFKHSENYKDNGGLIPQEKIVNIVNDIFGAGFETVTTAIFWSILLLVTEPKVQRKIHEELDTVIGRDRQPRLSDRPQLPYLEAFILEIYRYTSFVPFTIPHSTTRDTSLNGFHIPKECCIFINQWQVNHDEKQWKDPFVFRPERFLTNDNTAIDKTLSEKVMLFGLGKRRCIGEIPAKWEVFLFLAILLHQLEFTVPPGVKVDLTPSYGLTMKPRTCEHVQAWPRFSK
Procedure: as §1

Compound: N=C(N)c1cccc(C[C@H](NS(=O)(=O)c2cccc(-c3ccc(Cl)cc3Cl)c2)C(=O)N2CCC(CCN)CC2)c1 [MI-432]
- SARS-CoV-2 titers (SARS-CoV-2): reduced
- IC50 (CYP1A2 [1]): 1300 ± 140 nM
- CYP1A2 in the cynomolgus monkey microsomal model (CYP1A2 [1]; microsomes): inhibited
- rat hepatic microsomal CYP1A2 isoenzyme activity (CYP1A2 [2]; Sprague-Dawley, rat, 15 min, 50 µM): did not inhibit CYP1A2 function

Compound: COc1ccc(-c2cccc(S(=O)(=O)N[C@@H](Cc3cccc(C(=N)N)c3)C(=O)N3CCN(C(=O)NC4CCCCC4)CC3)c2)c(OC)c1 [MI-1900]
- SARS-CoV-2 titers (SARS-CoV-2): reduced
- IC50 (CYP1A2 [1]): 1100 ± 800 nM
- CYP1A2 in the cynomolgus monkey microsomal model (CYP1A2 [1]; inhibitors at 50 µM): inhibited
- rat hepatic microsomal CYP1A2 isoenzyme activity (CYP1A2 [2]; inhibitors at 50 µM, 15 min at 37 °C, vs untreated control): suppressed
